This is an account of results in PMC6100044 (Molecules : A Journal of Synthetic Chemistry and Natural …, 2018).

Details of data set [1]: method as in earlier work. To be noted: 28 (artemisone), 29 (DHA); cited from earlier work.
Data set [2] concerns mouse fibrosarcoma cell line WEHI-164. The data set is described as follows: Cytotoxicity, MTT assay, WEHI-164. Type of data set: cell-based. To be noted: Mus musculus, WEHI-164, 72 h, MTT, 72 h; read-out: WEHI-164 Mean ± S.D. IC50. In general terms: Formazan colour is commonly taken as a measure of viable cells.
The conditions of data set [3]: cited from earlier work.
The subject of data set [4] is different strains of Plasmodium falciparum (Pf). The data set is described as follows: In vitro antimalarial assay (pLDH), summary over different Pf strains. Type of data set: cell-based. To be noted: Plasmodium falciparum; range over D10 and W-2 strains; read-out: IC50 against different strains of Plasmodium falciparum. How it is done: (§1) Compounds were dissolved in either water or DMSO and then diluted with medium to achieve the required concentrations (final DMSO concentration <1%, which is non-toxic to the parasite). […] Parasite growth was determined spectrophotometrically (OD650) by measuring the activity of the parasite lactate dehydrogenase (pLDH) according to a modification of the method of Makler in control and drug-treated cultures.
(§2) As a blank, uninfected RBCs were used for the antimalarial assays or media without cells for the cytotoxicity assays. The percent viability was plotted as a function of drug concentrations, and the curve fitting was obtained by nonlinear regression analysis using a four parameter logistic method (software Gen5 1.10 provided with the Synergy4 plate reader [Biotek]).

The subject of data set [5] is P. falciparum CQ-resistant W-2. The data set is described as follows: In vitro antimalarial assay (pLDH), Pf W-2 strain. Type of data set: cell-based, Plasmodium falciparum. As for the experimental part:
as §1, §2

The test system of data set [6] is myelogenous leukemia cell line K562. As to the kind of experiment: Cytotoxicity, MTT assay, K562. Type of data set: cell-based, human. To be noted: Homo sapiens, K562; MTT assay conducted for 72 h; read-out: Mean (±S.D.) IC50 K562. How it is done:
(§3) Selected compounds were carried forward for screening against the immortalized myelogenous leukemia, K562, human microvascular endothelial cells (HMEC-1) and fresh human fibroblasts HDF (Table 2) using the MTT assay, as above.
(§4) A long term microvascular endothelial cell line (HMEC-1) immortalized by SV 40 large T antigen was kindly provided by Dr. Francisco J. Candal, Center for Disease Control, Atlanta, GA, USA. […] Fibroblasts from skin biopsies were maintained in DMEM (EuroClone, Pero, Italy) supplemented with 10% fetal calf serum (HyClone, Logan, UT, USA), 2 mM glutamine, 100 U/mL of penicillin and 100 µg/mL of streptomycin.
(§5) Cells were then treated with serial dilutions of test compounds and cell proliferation evaluated using the MTT assay as previously described. […] All the tests were performed in triplicate at least three times.
as §2

For data set [7], the system named is fresh human dermal fibroblasts HDF. The data set is described as follows: Cytotoxicity, MTT assay, HDF. The class given is cell-based. To be noted: Fibroblast, MTT assay conducted for 72 h, read-out: Mean (±S.D.) IC50 HDF. How it is done:
as §3, §4, §5, §2

The conditions of data set [8]: fold more active; cited from earlier work.
Data set [9] concerns P. falciparum CQ-sensitive D10. As to the kind of experiment: In vitro antimalarial assay (pLDH), Pf D10 strain. The class given is cell-based, Plasmodium falciparum. As for the experimental part:
as §1, §2

The test system of a further data set is Pf. To be noted: fold more active; cited from earlier work.

For the compound `C[C@H]1[C@H](N2CCS(=O)(=O)CC2)O[C@@H]2O[C@@]3(C)CC[C@H]4[C@H](C)CC[C@@H]1[C@@]24OO3` [Artemisone 7, artemisone, reference compound], in data set [1], the elimination half-life is recorded as ~ 3 h. Further, the plasma clearance in [1] was ~ 3.5 L/h/kg. Also, in data set [1], the volume of distribution was 14.5 L/kg. Also, the IC50 in data set [2] was 296 ± 59 nM; in data set [4] it was 0.9 to 1.1 nM; in [5] (Plasmodium falciparum, 72 h, CQ-resistant strain, 72 h, pLDH readout, read-out: W-2 (CQ-R) Mean ± S.D. IC50), 0.9 ± 0.4 nM; in data set [6], 260 ± 40 nM; in [7], 88300 ± 33800 nM; in data set [9] (Plasmodium falciparum, D10, 72 h, CQ-sensitive strain, 72 h, pLDH readout, read-out: D10 (CQ-S) Mean ± S.D. IC50) it was 1.1 ± 0.4 nM. Moreover, in [3], the “neurotoxicity in vitro and in vivo” value was “negligible neurotoxicity”. Besides, the entries for the “Ratio IC50 cpd/IC50 DHA” value in [5] (W-2 strain) and in data set [9] (D10 strain) were 0.6 and 0.32, respectively. Moreover, the “SI IC50WEHI-164/IC50 cpd” value in data set [5] (selectivity index versus W-2 strain) was 328; in data set [9] (selectivity index versus D10 strain), 269. The “activity relative to artesunate 4 in vivo” value in data set [8] is given as “at least three-fold”. Also, the “activity relative to artesunate 4 against Pf in vitro” value with Pf is listed as “nine-fold”.

What is called IC50 is the concentration at which inhibition is half-maximal.
